Source: patent US6271342A, “Sugar-modified cytostatics” (Bayer Aktiengesellschaft, priority 1995, dated 2001)
≈ marks a conversion by molar mass, not a printed value. Where “and” joins values, the source holds several entries; their conditions need not be identical. Equal values may be shown once.

Assays:
[1] = system: SW-480
Description: Cleavage Kinetics With Cells
(§9) 2.25 ml of PBS are incubated together with 225 μl of a cell suspension (30 mg/ml) and 25 μl of substrate stock solution (1 mg/ml in 3% dimethyl sulphoxide in PBS) at 37° C. After 1 hour and 24 hours, samples of in each case 1 ml are taken, mixed with 1 ml of ethanol and left to stand at 4° C. for 20 minutes. After centrifugation (5 minutes at 3500 rpm), 100 μl of supernatant are taken for the HPLC analysis.

[2] = system: SW 480; test: Growth inhibition test (MTT) for cytotoxic properties; assay type: cell-based, human; settings: Table 1b
Procedure, shortened: (§1)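 IC50 values come from an MTT read at 540 nm (5 h at 37 °C, 5 mg/ml MTT stock), taken on day 3 and day 6. Cells (HT 29, SW 480; 50,000 cells/ml in RPMI/10% FCS) were pre-cultured 1 day, then compound in DMSO was added.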

[3] = system: HT 29; test: as above; assay type: cell-based, human; settings: Table 1b
Procedure, shortened: as §1

[4] = system: B 16 F 10; test: as above; assay type: cell-based, mouse; settings: Table 1b
Procedure, shortened: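 Cells in RPMI 1640 with 10% FCS pre-cultured 1 day at 37° C, then exposed to test substances in DMSO; growth checked after day 3 and day 6. Read-out by MTT, 5 h incubation, isopropanol solubilization, extinction at 540 nm.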

[5] = system: hepatoma
Description: Cleavage Kinetics With Cells
as §9

[6] = system: SW 480; test: Two-layer soft agar culture of human tumour xenografts; assay type: cell-based; settings: T/C ≤30%
Description: (§2) The in vitro activity of glycoconjugates of quinolone-a was determined on human tumour xenografts in a two-layer soft agar culture system according to Hamburger and Salmon (Science 197: 461-463).
(§3) The solid tumours were initially grown in the athymic naked mouse (NMRI nu/nu), obtained by surgery and comminuted mechanically. Individual cells were then obtained by incubation in an enzyme mixture of collagenase 0.05%, DNAse 0.07% and hyaluronidase 0.1% in RPMI at 37° C. for 30 minutes. The cells were washed 2× and then passed through a sieve of 200 μm and 20 μm mesh width.
(§4) The base layer comprises 0.2 ml of Iscoves's Modified Dulbeccos Medium with 20% foetal calf serum and 0.7% agar. 40,000 to 200,000 cells in 0.2 ml of the same medium and 0.4% agar were applied to this layer in 24 multiwell plates. The cytostatic substances were added in 0.2 ml of medium.
(§5) The cultures were incubated at 37° C. in a 7% CO2 atmosphere for 6 to 15 days. The colonies which had grown were then counted under an inverting microscope, the living colonies being stained with a tetrazolium chloride dyestuff 24 hours before the evaluation.
(§6) The effect of the active compound is expressed in per cent of surviving colonies compared with the colony count of untreated plates (T/C=colony count treated×100/control count untreated).
(§7) A substance is active if the T/C value is ≤30%.
(§8) This value is shown as the IC70 value in μg/ml in Table 8.

[7] = system: MEXF 989; test: as above; assay type: cell-based; settings: T/C ≤30%
Description: as §2, §3, §4, §5, §6, §7, §8

[8] = system: OVXF 899; test: as above; assay type: cell-based; settings: T/C ≤30%
Description: as §2, §3, §4, §5, §6, §7, §8

[9] = system: HT 29; test: as above; assay type: cell-based; settings: T/C ≤30%
Description: as §2, §3, §4, §5, §6, §7, §8

[10] = system: CXF 280; test: as above; assay type: cell-based; settings: T/C ≤30%
Description: as §2, §3, §4, §5, §6, §7, §8

[11] = system: OVXF 1023; test: as above; assay type: cell-based; settings: T/C ≤30%
Description: as §2, §3, §4, §5, §6, §7, §8

[12] = system: LXFS 538; test: as above; assay type: cell-based; settings: T/C ≤30%
Description: as §2, §3, §4, §5, §6, §7, §8

[13] = system: LXFL 529; test: as above; assay type: cell-based; settings: T/C ≤30%
Description: as §2, §3, §4, §5, §6, §7, §8

[14] = system: bone marrow parent cells of the mouse; test: CSF-induced proliferation of bone marrow parent cells, in vitro; assay type: cell-based; settings: recombinant murine GM-CSF, 7 days
Description: Bone marrow cells are flushed out of the femur of mice. 10^5 cells are incubated in McCoy SA medium (0.3% agar) together with recombinant murine GM-CSF (Genzyme; parent cell colony formation) and the substances (10^-4 to 100 μg/ml) at 37° C. and 7% CO2. 7 days later, the colonies ([…]) and clusters (17-50 cells) are counted.

[15] = Cleavage kinetics with human blood (HPLC); assay type: in vitro ADME; settings: Table 2b; 37° C.
Excerpt: In Vitro Investigation of the Cleavability of the Glycoconjugates
Cleavage Kinetics With Human Blood

[16] = system: large-cell lung carcinoma LXFL 529; test: In vivo inhibition of tumour growth using a naked mouse model; design: species or system Athymic naked mice (NMRI nu/nu strain)
Excerpt: Athymic naked mice (NMRI nu/nu strain) were used for all the in vivo experiments for investigation of the inhibition of tumour growth. The large-cell lung carcinoma LXFL 529 selected was developed by serial passage in naked mice.
The tumour was implanted subcutaneously in both flanks of nu/nu naked mice 6 to 8 weeks old. Treatment was started, regardless of the doubling time, as soon as the tumours had reached a diameter of 5-7 mm. The mice were allocated to the treatment group and the control group (5 mice per group with 8-10 evaluable tumours) by randomization. The individual tumours of the control group all grew progressively.
The size of the tumours was measured in two dimensions by means of a sliding gauge. The tumour volume, which correlates well with the cell count, was then used for all the evaluations. The volume was calculated according to the equation "length×breadth×breadth/2" ([a×b^2 ]/2, a and b represent two diameters at right angles). The values of the relative tumour volume (RTV) were calculated for each individual tumour by dividing the tumour size on day X with the tumour size on day 0 (at the time of randomization). The mean RTV values were then used for the further evaluation.
The inhibition of the increase in the tumour volume (tumor volume of the test group/control group, T/C, in per cent) was the concluding measurement value.
All the compounds were administered according to an intermittent plan in each case on day 1, 5 and 9. Furthermore, all the compounds were administered intraperitoneally (i.p.) using water as the solvent.

[17] = system: tumour cell lines; test: Growth inhibition test, carbohydrate-free comparison compounds (cell line not stated); assay type: cell-based
Description: The human colon cell lines SW 480 and HT 29 (ATCC no. CCL 228 and HBT-38) and the mouse melanoma cell line B 16 F 10 were cultured in Roux dishes in RPMI 1640 medium with addition of 10% FCS. The cultures were then trypsinized and taken up in RPMI plus 10% FCS to a cell count of 50,000 cells/ml. 100 μl of cell suspension/well were introduced into a 96 microwell plate and incubated for 1 day at 37° C. in a CO2 incubating cabinet. A further 100 μl of RPMI medium and 1 μl of dimethyl sulphoxide with the test substances were then added. The growth was checked after day 3 and day 6. 40 μl of MTT solution (3-(4,5-dimethylthiazol-2-yl)-2,5-diphenyltetrazoline bromide) with an initial concentration of 5 mg/ml of H2 O were added to each microwave. The plate was incubated for 5 hours in a CO2 incubating cabinet at 37° C. The medium was then sucked off and 100 μl of i-propanol/well were added. After shaking for 30 minutes with 100 μl of H2 O, the extinction was measured at 540 nm with a Titertek Multiskan MCC/340 (Flow).

| Compound | % cleavage in SW-480 1 hour [1] | % cleavage in SW-480 24 hours [1] | IC50 [2] | IC50 [3] | IC50 [4] | % cleavage in hepatoma 1 hour [5] | % cleavage in hepatoma 24 hours [5] | IC70 /μg/ml [6] | IC70 /μg/ml [7] | IC70 /μg/ml [8] | IC70 /μg/ml [9] | IC70 /μg/ml [10] | IC70 /μg/ml [11] | IC70 /μg/ml [12] | IC70 /μg/ml [13] | IC50 [μg/ml] CSF-induced proliferation of bone marrow parent cells of the mouse [14] | % cleavage in human blood 1 hour [15] | % cleavage in human blood 24 hours [15] | IC50 [17] | further results |
| --- | --- | --- | --- | --- | --- | --- | --- | --- | --- | --- | --- | --- | --- | --- | --- | --- | --- | --- | --- | --- |
| COC1C(O)C(C)OC(Oc2ccc(NC(=S)NCCCCC(NC(=S)Nc3ccc(OC4OC(C)C(O)C(OC)C4O)cc3)C(=O)NC3C=CCC4CN(c5c(F)cc6c(=O)c(C(=O)O)cn(C7CC7)c6c5Cl)CC43)cc2)C1O (mixture of isomers) [Example 11.7, N-{N^α,N^ε -Bis-[O-(3--methyl-β-L-fucosyl)-4-hydroxy-phenylamino-thiocarbonyl]-D -lysyl}-quinolone-a] | 0% | 0% | 12 µM | 13 µM | 15 µM | 0% | 0% | 18 µg/mL | 3 µg/mL | 234 µg/mL | 56 µg/mL | > 100 µg/mL | 136 µg/mL | 18 µg/mL | 4 µg/mL | 2.9 µg/mL | 0% | 0% |  |  |
| CC1OC(Oc2ccc(NC(=S)NC(CCCCN)C(=O)NC3C=CCC4CN(c5c(F)cc6c(=O)c(C(=O)[O-])cn(C7CC7)c6c5Cl)CC43)cc2)C(O)C(OCC(=O)[O-])C1O.[Na+].[Na+] (mixture of isomers) [Example 12.6, N-{N^α -[O-(3-O-Carboxymethyl-β-L-fucosyl)-4-hydroxy-phenylamino-thiocarbonyl]-lysyl}-quinolone-a, di-sodium salt] |  |  | 4 µM | 7 µM | 0.3 µM |  |  |  |  |  |  |  |  |  |  | 0.3 µg/mL |  |  |  | Dose [mg/kg/day], maximum tolerated dose (MTD) ([16]; i.p. in water on day 1, 5 and 9): 100 mg/kg/day; Survival time ([16]; individual mice, treated at MTD i.p. on day 1, 5 and 9, di-sodium salt): 23 days and > 26 days and 26 days; Relative tumour volume [% of day 0] ([16]; on day 19, treated at MTD i.p. on day 1, 5 and 9): 300.7 % of day 0; Optimum T/C ([16]; on day 19, tumour volume of test group/control group): 19.4% |
| CO[C@H]1[C@H](O)[C@@H](Oc2ccc(NC(=S)N[C@H](C)C(=O)NC3C=CCC4CN(c5c(F)cc6c(=O)c(C(=O)O)cn(C7CC7)c6c5Cl)CC43)cc2)O[C@@H](C)[C@H]1O (stereo partly drawn) [Example 12.1, N-{N'-[O-(3-O-Methyl-β-L-fucosyl)-4hydroxy-phenylamino-thiocarbonyl]-D -alanyl}-quinolone-a] | 0% | 0% | 1 µM | 1.5 µM | 0.1 µM | 0% | 0% | 8 µg/mL (≈ 10 µM) | < 0.3 µg/mL | 45 µg/mL (≈ 56.2 µM) | 6 µg/mL (≈ 7.5 µM) | 70 µg/mL (≈ 87.5 µM) | 12 µg/mL (≈ 15 µM) | 0.4 µg/mL (≈ 0.5 µM) | 0.9 µg/mL (≈ 1.12 µM) | 0.21 µg/mL | 0% | 0% |  |  |
| COC1C(O)C(C)OC(Oc2ccc(NC(=S)NC(CCCCN)C(=O)NC3C=CCC4CN(c5c(F)cc6c(=O)c(C(=O)O)cn(C7CC7)c6c5Cl)CC43)cc2)C1O [Example 12.5, N-{N^α -[O-(3-O-Methyl-β-L-fucosyl)-4-hydroxy-phenylamino-thiocarbonyl]-lysyl}-quinolone-a] |  |  | 1 µM | 4 µM | 0.2 µM |  |  | 10 µg/mL (≈ 11.7 µM) | 0.5 µg/mL (≈ 0.583 µM) | 55 µg/mL (≈ 64.1 µM) | 11 µg/mL (≈ 12.8 µM) | < 0.3 µg/mL | 9 µg/mL (≈ 10.5 µM) | < 0.3 µg/mL | 2 µg/mL (≈ 2.33 µM) |  |  |  |  |  |
| N-[N^α,N^ε -bis-(4-hydroxyphenylamino-thiocarbonyl)-lysyl-D-alanyl]-batracyline |  |  |  |  |  |  |  |  |  |  |  |  |  |  |  |  |  |  | > 250 µM |  |
| N-[N^α,N^ε -bis-(4-hydroxyphenylamino-thiocarbonyl)-lysyl]-batracyline |  |  |  |  |  |  |  |  |  |  |  |  |  |  |  |  |  |  | > 250 µM |  |
